The text below walks through data of patent US20250361234A1 (NICO THERAPEUTICS, INC., priority 2022, published 2025).

The target of this experiment is T1, full-length SARM1 (FL-SARM1) (Homo sapiens, UniProt Q6SZW1).
T1 sequence (Q6SZW1 28-724): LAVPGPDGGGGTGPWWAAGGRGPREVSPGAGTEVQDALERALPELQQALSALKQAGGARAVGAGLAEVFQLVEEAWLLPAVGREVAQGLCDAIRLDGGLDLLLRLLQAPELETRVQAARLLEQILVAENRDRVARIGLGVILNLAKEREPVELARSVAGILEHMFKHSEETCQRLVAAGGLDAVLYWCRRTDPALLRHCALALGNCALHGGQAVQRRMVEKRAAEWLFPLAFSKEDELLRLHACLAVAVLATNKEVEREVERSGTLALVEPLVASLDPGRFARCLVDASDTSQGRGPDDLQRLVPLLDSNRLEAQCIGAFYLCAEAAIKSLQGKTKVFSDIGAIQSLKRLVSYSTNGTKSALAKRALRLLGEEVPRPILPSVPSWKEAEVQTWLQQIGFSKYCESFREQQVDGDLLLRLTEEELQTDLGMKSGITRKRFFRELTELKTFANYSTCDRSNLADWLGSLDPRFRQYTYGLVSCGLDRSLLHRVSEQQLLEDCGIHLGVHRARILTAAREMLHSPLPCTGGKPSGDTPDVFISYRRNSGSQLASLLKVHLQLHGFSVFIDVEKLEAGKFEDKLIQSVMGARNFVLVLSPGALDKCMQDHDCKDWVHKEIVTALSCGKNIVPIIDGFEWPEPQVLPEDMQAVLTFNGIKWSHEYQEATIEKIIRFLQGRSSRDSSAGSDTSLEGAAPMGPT
The experiment is described as follows: FL-SARM1 cellular lysate assay (NAD/NADH-Glo readout of remaining NAD+). Particulars: SARM1 cellular lysate from transfected HEK293T cells, NAD+ and NMN, 11 point curve.

Procedure: Preparation of full-length SARM1 (FL-SARM1) lysate: HEK293T cells (ATCC: CRL-3216) were grown on 150 mm TC-treated dishes to 80-90% confluency in complete DMEM (Thermo Fisher: 11965175) supplemented with 10% HI-FBS (VWR: 10802-772), 1× Pen/Strep (Thermo Fisher: 15140122), 1× NEAA (Thermo Fisher: 1140050), 1× glutamax (Thermo Fisher: 35050061), and 1 mM sodium pyruvate (Thermo Fisher: 11360070)) at 37° C. and 5% CO2. One hour prior to transfection, the media was replaced with fresh, 37° C. complete DMEM (20 mL per one 150 mm dish) supplemented with additional 10 mM glucose (Alfa Aesar AAJ60067EQE). Per one 150 mm dish, 30 μg FL-SARM1 (SEQ. ID. 1; cloned in-house) plasmid was dissolved in 1 mL DMEM at ambient temperature and were mixed by inverting the tube 8-10 times. 90 μL of GenJet™ in vitro DNA transfection reagent (Ver2) was dissolved in 1 mL DMEM at ambient temperature and were mixed by inverting the tube 8-10 times. The plasmid and transfection agent solutions were combined, mixed by 8-10 inversions and incubated for 10 minutes at ambient temperature. 2 mL of this transfection mixture was added to each dish containing HEK293T cells as prepared above followed by a gentle mixing of 4-5 horizontal rotations. The dishes were incubated at 37° C. and 5% CO2 for 24 h. The dishes were removed from the incubator, the medium was aspirated and the cells were scraped off using cell scrapers in ice-cold 1× PBS (5 mL/dish, Thermo Fisher Scientific 10010023). The collected cells were centrifuged at 300 g for 5 minutes at 4° C. The supernatant was aspirated and the pellet was frozen at −80° C. until needed. The cell pellet from 30 dishes was dissolved in 30 mL 1× PBS supplemented with 4 tablets of Complete, Mini EDTA-free protease inhibitor cocktail at 4° C. This mixture was sonicated on ice for 10 minutes at 50% amplitude with a 1 second on/1 second off interval using a Model 120 sonicator (Thermo Fisher Scientific, FB120110). The lysate was centrifuged at 16000 g for 10 minutes at 4° C.
To a white 384-well Proxiplate (PerkinElmer, PE-6008280) was added 50 nL/well of a DMSO solution containing test compounds followed by 7.5 mL/well of a 0.067 mg/mL solution of SARM1 cellular lysate in reaction buffer (DPBS containing CHAPSO (0.1%) and fatty acid free BSA (0.032%)). The plate was centrifuged for 1 minute at 1000 RPM and then placed in an incubator at 23° C. for 15 minutes. To the wells were added 2.5 mL/well of a solution containing 40 mM NAD^+ and 4 mM NMN in reaction buffer. The plate was centrifuged for 1 min at 1000 RPM, the plate was sealed and placed in an incubator at 23° C. for 3.5 hours before adding 3.5 mL/well of NAD/NADH-Glo™ solution (preparation as described by Promega using the extended detection protocol). The plate was centrifuged for 1 minute at 1000 RPM and then incubated at 23° C. for 20 minutes. 1 mL/well of a 3.625 mM solution of menadione in DMSO was added and the plate was centrifuged for 1 minute at 1000 RPM. […] Percent inhibition was calculated as follows:
IC50 values were calculated from an 11 point curve using ½ log dilutions using a four-parameter logistic regression curve fit.

Consider `O=C(Nc1ccc(CC(F)F)c(-c2cncc(F)c2)c1)N1C2CCCC1C2` [Example 23, N-(4-(2,2-difluoroethyl)-3-(5-fluoropyridin-3-yl)phenyl)-6-azabicyclo[3.1.1]heptane-6-carboxamide], for which inhibition (Activity (μM)) was half-maximal at 0.9 µM (IC50) and the 50% inhibitory concentration (IC50) (in general, the concentration that inhibits the measured activity by half) (Activity) was 0.0001 to 1 µM.

For the compound `Cc1ccc(NC(=O)N2C3C[C@@H]2C[C@H](n2cccn2)C3)cc1-c1cncc(F)c1` [Example 27, cis-N-(3-(5-fluoropyridin-3-yl)-4-methylphenyl)-3-(1H-pyrazol-1-yl)-6-azabicyclo[3.1.1]heptane-6-carboxamide], the IC50 by setting is: (Activity (μM)) 14.1 µM; (Activity) greater than 10 µM.

`O=C(Nc1ccc(CCF)c(-c2cncc(F)c2)c1)N1C2CCCC1C2` [Example 28, N-(4-(2-fluoroethyl)-3-(5-fluoropyridin-3-yl)phenyl)-6-azabicyclo[3.1.1]heptane-6-carboxamide]: the IC50 is 0.8 µM (Activity (μM)) and 0.0001 to 1 µM (Activity).

In turn, `Cc1ccc(NC(=O)N2C3C[C@H](OC(F)F)C[C@@H]2C3)cc1-c1cncc(F)c1` [Example 29, cis-3-(difluoromethoxy)-N-(3-(5-fluoropyridin-3-yl)-4-methylphenyl)-6-azabicyclo[3.1.1]heptane-6-carboxamide] came in with an IC50 (Activity (μM)) of 0.1 µM and a half-inhibitory concentration (IC50) (Activity) of 0.0001 to 1 µM.

In the case of `Cc1ccc(NC(=O)N2C3CC[C@H](C#N)[C@@H]2C3)cc1-c1cncc(F)c1` [Example 30, cis-2-cyano-N-(3-(5-fluoropyridin-3-yl)-4-methylphenyl)-6-azabicyclo[3.1.1]heptane-6-carboxamide], the IC50 runs as follows: (Activity (μM)) 5.5 µM; (Activity) 1 to 10 µM.

Regarding `Cc1ccc(NC(=O)N2C3CC[C@H](C(=O)N(C)C)[C@@H]2C3)cc1-c1cncc(F)c1` [Example 33, cis-N^6-(3-(5-fluoropyridin-3-yl)-4-methylphenyl)-N^2,N^2-dimethyl-6-azabicyclo[3.1.1]heptane-2,6-dicarboxamide], the concentration for half-maximal inhibition (IC50) was 32.9 µM (Activity (μM)) and greater than 10 µM (Activity).

With `Cc1ccc(NC(=O)N2C3CC[C@@H](C(=O)N(C)C)[C@@H]2C3)cc1-c1cncc(F)c1` [Example 34, trans-N^6-(3-(5-fluoropyridin-3-yl)-4-methylphenyl)-N^2,N^2-dimethyl-6-azabicyclo[3.1.1]heptane-2,6-dicarboxamide], the concentration for half-maximal inhibition (IC50) is 47.3 µM (Activity (μM)) and greater than 10 µM (Activity).

`Cc1ccc(NC(=O)N2C3CCCC2C3)cc1-c1cncc(OC(F)(F)F)c1` [Example 35, N-(4-methyl-3-(5-(trifluoromethoxy)pyridin-3-yl)phenyl)-6-azabicyclo[3.1.1]heptane-6-carboxamide]: the IC50 was 0.1 µM (Activity (μM)) and 0.0001 to 1 µM (Activity).

In turn, `Cc1ccc(NC(=O)N2C3C[C@@H](C#N)C[C@@H]2C3)cc1-c1cncc(F)c1` [Example 36, trans-3-cyano-N-(3-(5-fluoropyridin-3-yl)-4-methylphenyl)-6-azabicyclo[3.1.1]heptane-6-carboxamide] showed a half-maximal inhibitory concentration (IC50) (Activity (μM)) of 0.8 µM and an IC50 (Activity) of 0.0001 to 1 µM.

Compound `Cc1ccc(NC(=O)N2C3CC2CC(F)(F)C3)cc1-c1cncc(F)c1` [Example 37, 3,3-difluoro-N-(3-(5-fluoropyridin-3-yl)-4-methylphenyl)-6-azabicyclo[3.1.1]heptane-6-carboxamide] came in with a half-inhibitory concentration (IC50) (Activity (μM)) of 0.5 µM and a 50% inhibitory concentration (IC50) (Activity) of 0.0001 to 1 µM.

Regarding `Cc1ccc(NC(=O)N2C3CC(=O)CC2C3)cc1-c1cncc(F)c1` [Example 38, N-(3-(5-fluoropyridin-3-yl)-4-methylphenyl)-3-oxo-6-azabicyclo[3.1.1]heptane-6-carboxamide], the 50% inhibitory concentration (IC50) is 2.3 µM (Activity (μM)) and 1 to 10 µM (Activity).

Turning to `CCO[C@H]1CC2C[C@H](C1)N2C(=O)Nc1ccc(C)c(-c2cncc(F)c2)c1` [Example 39, trans-3-ethoxy-N-(3-(5-fluoropyridin-3-yl)-4-methylphenyl)-6-azabicyclo[3.1.1]heptane-6-carboxamide], the IC50 was 8.3 µM (Activity (μM)) and 1 to 10 µM (Activity).

`COC(=O)[C@H]1CCC2C[C@@H]1N2C(=O)Nc1ccc(C)c(-c2cncc(F)c2)c1` [Example 40, cis-methyl 6-((3-(5-fluoropyridin-3-yl)-4-methylphenyl)carbamoyl)-6-azabicyclo[3.1.1]heptane-2-carboxylate]: the half-maximal inhibitory concentration (IC50) is, setting by setting: (Activity (μM)) 20.9 µM; (Activity) greater than 10 µM.

`Cc1cc(F)c(NC(=O)N2C3C[C@H](C)C[C@@H]2C3)cc1-c1cncc(F)c1` [Example 41, cis-N-(2-fluoro-5-(5-fluoropyridin-3-yl)-4-methylphenyl)-3-methyl-6-azabicyclo[3.1.1]heptane-6-carboxamide]: the IC50 runs as follows: (Activity (μM)) 0.04 µM; (Activity) 0.0001 to 1 µM.

Regarding `C[C@@H]1CC2C[C@H](C1)N2C(=O)Nc1ccc(C(F)F)c(-c2cncc(F)c2)c1` [Example 42, cis-N-(4-(difluoromethyl)-3-(5-fluoropyridin-3-yl)phenyl)-3-methyl-6-azabicyclo[3.1.1]heptane-6-carboxamide], the IC50 is 0.06 µM (Activity (μM)) and 0.0001 to 1 µM (Activity).

In turn, `COC[C@H]1C2CCC[C@H]1N2C(=O)Nc1ccc(C)c(-c2cncc(F)c2)c1` [Example 44, N-trans-(3-(5-fluoropyridin-3-yl)-4-methylphenyl)-7-(methoxymethyl)-6-azabicyclo[3.1.1]heptane-6-carboxamide] gave an IC50 (Activity (μM)) of 17.2 µM and an IC50 (Activity) greater than 10 µM.

For the compound `Cc1ccc(NC(=O)N2C3CCCC2C3)cc1-c1cncc(OCF)c1` [Example 45, N-(3-(5-(fluoromethoxy)pyridin-3-yl)-4-methylphenyl)-6-azabicyclo[3.1.1]heptane-6-carboxamide], the IC50 runs as follows: (Activity (μM)) 0.06 µM; (Activity) 0.0001 to 1 µM.

Turning to `Cc1ccc(NC(=O)N2C3CCCC2C3)cc1-c1cncc(S(C)(=O)=O)c1` [Example 47, N-(4-methyl-3-(5-(methylsulfonyl)pyridin-3-yl)phenyl)-6-azabicyclo[3.1.1]heptane-6-carboxamide], the IC50 is 17 µM (Activity (μM)) and greater than 10 µM (Activity).

For the compound `Cc1ccc(NC(=O)N2C3CCCC2C3)cc1-c1cncc(OC(F)F)c1` [Example 48, N-(3-(5-(difluoromethoxy)pyridin-3-yl)-4-methylphenyl)-6-azabicyclo[3.1.1]heptane-6-carboxamide], the IC50 by setting is: (Activity (μM)) 0.1 µM; (Activity) 0.0001 to 1 µM.

The compound `Cc1ccc(NC(=O)N2C3C[C@H](C#N)C[C@@H]2C3)cc1-c1cncc(F)c1` [Example 49, cis-3-cyano-N-(3-(5-fluoropyridin-3-yl)-4-methylphenyl)-6-azabicyclo[3.1.1]heptane-6-carboxamide] came in with a half-inhibitory concentration (IC50) (Activity (μM)) of 0.4 µM and an IC50 (Activity) of 0.0001 to 1 µM.

`Cc1ccc(NC(=O)N2C3CC2CC2(CC2)C3)cc1-c1cncc(F)c1` [Example 54, N-(3-(5-fluoropyridin-3-yl)-4-methylphenyl)-6-azaspiro[bicyclo[3.1.1]heptane-3,1′-cyclopropane]-6-carboxamide] displayed an IC50 (Activity (μM)) of 0.06 µM and a concentration for half-maximal inhibition (IC50) (Activity) of 0.0001 to 1 µM.

For `O=C(Nc1ccc(Cl)c(-c2cncc(F)c2)c1)N1C2C[C@H](OC(F)F)C[C@H]1C2` [Example 55, trans-N-(4-chloro-3-(5-fluoropyridin-3-yl)phenyl)-3-(difluoromethoxy)-6-azabicyclo[3.1.1]heptane-6-carboxamide], the half-inhibitory concentration (IC50) runs as follows: (Activity (μM)) 0.3 µM; (Activity) 0.0001 to 1 µM.

As to `Cc1ccc(NC(=O)N2C3C[C@H](OC(F)F)C[C@H]2C3)cc1-c1cncc(F)c1` [Example 56, trans-3-(difluoromethoxy)-N-(3-(5-fluoropyridin-3-yl)-4-methylphenyl)-6-azabicyclo[3.1.1]heptane-6-carboxamide], the IC50 was 0.09 µM (Activity (μM)) and 0.0001 to 1 µM (Activity).

Regarding `COc1ccncc1-c1cc(NC(=O)N2C3CCCC2C3)ccc1C` [Example 59, N-[3-(4-methoxypyridin-3-yl)-4-methylphenyl]-6-azabicyclo[3.1.1]heptane-6-carboxamide], the IC50 runs as follows: (Activity (μM)) 1.7 µM; (Activity) 1 to 10 µM.

Take `Cc1ccc(NC(=O)N2C3CCCC2C3)cc1-c1ccc(C#N)nc1` [Example 60, N-[3-(6-cyanopyridin-3-yl)-4-methylphenyl]-6-azabicyclo[3.1.1]heptane-6-carboxamide]: the IC50 by setting is: (Activity (μM)) 8.5 µM; (Activity) 1 to 10 µM.

Consider `Cc1ccc(NC(=O)N2C3CCCC2C3)cc1-c1cccnc1C#N` [Example 61, N-[3-(2-cyanopyridin-3-yl)-4-methylphenyl]-6-azabicyclo[3.1.1]heptane-6-carboxamide], for which the half-maximal inhibitory concentration (IC50) is, setting by setting: (Activity (μM)) 0.8 µM; (Activity) 0.0001 to 1 µM.

With `Cc1ccc(NC(=O)N2C3CCCC2C3)cc1-c1cnccc1C#N` [Example 62, N-(3-(4-cyanopyridin-3-yl)-4-methylphenyl)-6-azabicyclo[3.1.1]heptane-6-carboxamide], the IC50 by setting is: (Activity (μM)) 1.1 µM; (Activity) 1 to 10 µM.

Turning to `Cc1ccc(NC(=O)N2C3CCCC2C3)cc1-c1ccnnc1` [Example 63], the concentration for half-maximal inhibition (IC50) is 25.9 µM (Activity (μM)) and greater than 10 µM (Activity).
